We go through one molecule from ChEMBL document CHEMBL1142100, “Hypericin activates L-type Ca2+ channels in cardiac myocytes” (J Nat Prod, 2007).

Format in all cases: cell-based
What all share (conditions): Cardiac atrium

Assay [1] has as its system Pelophylax lessonae. The assay is described as follows: Activity at L-type calcium channel in frog atrial myocytes assessed as increase in Sr2+ current.
The subject of assay [2] is Pelophylax lessonae. Put plainly: Inhibition of PP2A in frog atrial myocytes by microscystin assay.
In assay [3] the test system is Pelophylax lessonae. The assay is described as follows: Inhibition of NOS2 in frog atrial myocytes.
In assay [4] the test system is Pelophylax lessonae. Put plainly: Decrease in cellular cGMP level in frog atrial myocytes at 4 uM by immunoassay. More on the design: scale not given: the % may be the effect or the level left.

SMILES strings stand for the structures. Activity calls are given as the source filed them. The rule behind the calls is not given here.

For the molecule `Cc1cc(O)c2c(=O)c3c(O)cc(O)c4c5c(O)cc(O)c6c(=O)c7c(O)cc(C)c8c1c2c(c34)c(c78)c65`, the Activity entry is “Dose-dependent effect” in the assay on Pelophylax lessonae [1] and 69% in the assay on Pelophylax lessonae [4]. In addition, the result in the assay on Pelophylax lessonae [2] and in the assay on Pelophylax lessonae [3] was inactive.
